According to patent US20200032313A1 (SANYO CHEMICAL INDUSTRIES, LTD., priority 2017, published 2020):
Where two headings read alike, the source gives them in different places.

Assays:
Assay type in all cases: cell-based
[1] = system: luciferase-expressing Saccharomyces cerevisiae; settings: S. cerevisiae, 8 hours culturing after addition
Method: Transformation was performed using Saccharomyces cerevisiae distributed by Biotechnology Center, National Institute of Technology and Evaluation, whereby luciferase-expressing microorganisms were produced. A vector pYES2 (Thermo Fisher Scientific) was digested with HindIII and XbaI, and a synthetic (synthesized by Thermo Fisher Scientific on commission) a factor-luciferase gene having a HindIII cut site at one end and an XbaI cut site at the other end was inserted into the vector. The microorganisms were transformed by the a factor-luciferase gene-inserted pYES2 according to the method described in an instruction manual of pYES2. The luciferase-expressing microorganisms were inoculated using a platinum loop into YPD broth (yeast extract 1 wt % (Difco), bacto peptone 2 wt % (Difco), and glucose 2 wt %) and were shake-cultured at 200 rpm at 30° C. for 15 hours. Then, the thus-obtained broth was resuspended in 125-ml YPD broth (containing 100 mM potassium hydrogen phosphate buffer; pH: 6) to a final optical density (hereinafter sometimes abbreviated as “OD”) of 0.1 OD/ml.
The optical density of the broth was measured under the same conditions as for “Method of measuring the optical density of broth” described later.
Further, the resuspended broth was continued to be shake-cultured at 1100 rpm at 30° C. for about 17 hours until OD was 20 to 30. When OD was 20 to 30, the broth was centrifuged (1500 g, 10 min), and resuspended in 125-ml galactose-inducing broth (the YPD broth containing 100 mM potassium phosphate buffer and also containing 2% galactose instead of glucose; pH: 6), followed by culturing at 1100 rpm at 30° C. for 2 hours.
Subsequently, the surfactant described in Table 1 was added to the broth in the amount (wt %) described in Table 1, and the broth was cultured at 1100 rpm at 30° C. for 8 hours. Subsequently, the broth was sampled for measuring the optical density (optical density at the end of culturing) and for measuring the secretion efficiency. Then, these samples were subjected to centrifugation using a centrifuge to separate bacteria and the supernatant from the broth. Then, the supernatant and the bacteria were collected.
(§1) The optical density of the broth containing the microorganisms collected by sampling was measured in a quartz cell (light path of 1 cm) using a spectrophotometer (UV-1700, Shimadzu Corporation).
(§2) The broth was centrifuged at 1500 rpm at 4° C. for 5 minutes, and the supernatant was discarded. The precipitate was resuspended in a saline solution in an amount equal to the amount of the sample solution, and was diluted in the saline solution to obtain an appropriate absorbance (0.1 to 0.8). Then, the absorbance at 600 nm was measured. The optical density of the broth was calculated using the following mathematical formula (1).
(§3) Broth optical density(OD)=(Absorbance of diluted broth at 600 nm)×dilution factor of broth (Mathematical formula 1)

[2] = system: acid phosphatase-expressing Candida boidinii; settings: 8 hours
Method: (§4) Candida boidinii was transformed and acid phosphatase-expressing microorganisms were produced based on a method described in a known document (Regulation and evaluation of five methanol-inducible promoters in the methylotrophic yeast Candida boidinii, H. Yurimoto et al., Biochimica et Biophysica Acta, 1493, 2000, pp. 56-63). The acid phosphatase-expressing microorganisms were inoculated using a platinum loop into BMGY broth, and were shake-cultured at 200 rpm at 30° C. for 15 hours. Then, the thus-obtained broth was resuspended in 125-ml BMGY broth to a final OD of 0.1 OD/ml. Further, the resuspended broth was continued to be shake-cultured at 1100 rpm at 30° C. for about 17 hours until OD was 2 to 5. When OD was 2 to 5, methanol was added to a concentration of 2 v/v %, followed by culturing at 1100 rpm at 30° C. for 2 hours.
(§5) Two hours later, the surfactant described in Table 3 was added to the broth in the weight described in Table 3, and the broth was cultured at 1100 rpm at 30° C. for 8 hours. Eight hours later, the broth was sampled for measuring the optical density (optical density at the end of culturing), and was subjected to centrifugation using a centrifuge to separate bacteria and the supernatant from the broth. Then, the supernatant and the bacteria were collected.
Then, 50 mM acetic acid NaBf (pH 4.0) was added to the bacteria, followed by centrifugation, whereby the bacteria were washed. The washed bacteria were resuspended in 50 mM acetic acid NaBf (pH 4.0), whereby a sample for measuring the acid phosphatase activity on the bacterial surface was obtained.
The supernatant obtained in each of Examples 23 to 33 and Comparative Example 3 was mixed with a 2 M sodium acetate buffer (pH 4.0) in an amount of 5 μl that is 1/40 of the amount of the supernatant. The buffer-containing supernatant or the sample for measuring the bacterial surface obtained in each of Examples 23 to 33 was mixed with a substrate solution (50 mM sodium acetate buffer containing 0.64 mg/ml of p-nitrophenylphosphate; pH 4.0) at a capacity ratio of 1:1, and the mixture was reacted at 35° C. for 10 minutes.
After the reaction, a 10% solution of trichloroacetic acid in an amount equal to the amount of the reaction solution was added to the reaction solution to terminate the reaction. To develop a color, a saturated sodium carbonate solution in an amount equal to the total amount of the reaction solution was added to the solution in which the reaction has been terminated. The color-developed solution was centrifuged at 1500×g for 5 minutes to remove the insoluble fraction, and the absorbance at 420 nm was measured using a microplate reader “PowerWave” (Biotek). The reference wavelength was set to 630 nm.
The acid phosphatase activity of each of the supernatant and the sample for measuring the bacterial surface was calculated from the following formula. The thus-obtained acid phosphatase activity of the supernatant was regarded as the “acid phosphatase activity of secreted and produced useful substance” and the acid phosphatase activity of the sample for measuring the bacterial surface was regarded as the “acid phosphatase activity of useful substance remaining on bacterial surface”.
Acid phosphatase activity=((Abs 420 nm)−(Abs 630 nm))/(optical density at the end of culturing)
For each of Examples 23 to 33 and Comparative Example 3, the obtained value of the “acid phosphatase activity of secreted and produced useful substance” and the obtained value of the “acid phosphatase activity of useful substance remaining on bacterial surface” were used to calculate the secretion efficiency from the following mathematical formula.
Secretion efficiency (%)=100×(Acid phosphatase activity of secreted and produced useful substance)/(total acid phosphatase activity) […]

[3] = system: acid phosphatase-expressing Candida boidinii; settings: 8 hours culturing after addition
Method: as §4, §5, §1, §2, §3

[4] = surfactant 0.03 wt % of broth, Examples 2, 5-11
[5] = surfactant 0.03 wt % of broth, Examples 24, 27-33
[6] = surfactant 0.003 wt % of broth, Example 23
[7] = surfactant 0.3 wt % of broth, Example 25
[8] = surfactant 3 wt % of broth, Example 26

Molecule	Optical density (OD) of broth at the end of culturing [1, 4] [OD]	Secretion efficiency (%) [2, 5] [%]	Optical density (OD) of broth at the end of culturing [3, 5] [OD]	other results
CCCCCCCCCCCC[N+](C)(C)C.[Cl-] [Surfactant (A2-1), lauryl trimethyl ammonium chloride]	13.8	61	3.94	
CCCCCCCCCCCC[N+](C)(C)CC(=O)[O-] [Surfactant (A3-5), betaine lauryldimethylaminoacetate]	20.4	61	7.33	
CCCCCCCCCCCCCCCCOP(=O)([O-])OCC[N+](C)(C)C [Surfactant (A3-4), miltefosine, reference compound]	21.1	54	7.91	
sodium polyoxyethylene (average 3 mol adduct) lauryl ether acetate [Surfactant (A1-2)]	22.1	48	5.68	
sodium (2-dodecylamino)ethanesulfonate [Surfactant (A3-1)]	22.0	57	5.7	
sodium polyoxyethylene (average 2.5 mol adduct) lauryl ether sulfate [Surfactant (A1-1)]	21.9	49	5.77	
CCCCCCCCCCCCNCCC(=O)O	21.2	63	6.0	Optical density (OD) of broth at the end of culturing ([1]; surfactant 0.003 wt % of broth, Example 1): 23.5 OD; Optical density (OD) of broth at the end of culturing ([1]; surfactant 0.3 wt % of broth, Example 3): 18.2 OD; Optical density (OD) of broth at the end of culturing ([1]; surfactant 3 wt % of broth, Example 4): 10.9 OD; Secretion efficiency (%) [2, 6]: 49%; Secretion efficiency (%) [2, 7]: 77%; Secretion efficiency (%) [2, 8]: 79%; Optical density (OD) of broth at the end of culturing [3, 6]: 5.1 OD; Optical density (OD) of broth at the end of culturing [3, 7]: 2.7 OD; Optical density (OD) of broth at the end of culturing [3, 8]: 2.7 OD
CCCCCCCCCCCC[N+](C)(C)CCCS(=O)(=O)O.[OH-] [Surfactant (A3-3), dodecyldimethyl(3-sulfopropyl)ammonium hydroxide]	21.8	54	8.07	
